The results in this text go back to patent publication US11505548B2, “Heterocyclic compounds and their use for treatment of helminthic infections and diseases” (Celgene Corporation, priority 2019, dated 2022).

In the assay the test system is microfilariae of Dirofilaria immitis. Kind of assay: Dirofilaria immitis, Microfilaria (DiMF) Assay. Conditions: read-out: D. immitis activity level (IC50 or MED). Type of assay: cell-based. Put shortly: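 D. immitis microfilariae were incubated in medium with DMSO-diluted compounds for about 72 h. Survival or paralysis was scored subjectively under the microscope. Values are Minimum Effective Dose (MED).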

The term IC50 denotes the midpoint of a concentration-inhibition curve. In the case of `CC(C)Oc1ccc(-c2nsc(Nc3nccnc3N(C)C)n2)nc1` [Compound 144, N2-(3-(5-isoprop-oxypyridin-2-yl)-1,2,4-thiadiazol-5-yl)-N3,N3-dimethyl-pyrazine-2,3-diamine], the IC50 fell in the range of 200 to 500 nM.
As for `Cc1cccnc1Nc1nc(-c2ccc(OC(C)C)cn2)no1` [Compound 20, 3-(5-isopropoxy-pyridin-2-yl)-N-(3-methyl-pyridin-2-yl)-1,2,4-oxadiazol-5-amine], the IC50 lay within 500 to 5000 nM.
For `CC(=O)N(C)c1cccnc1Nc1nc(-c2ccc(OC3CCN(C(C)C)CC3(F)F)cn2)ns1` (centres unmarked) [Compound 203, N-(2-(3-(5-(3,3-difluoro-1-isopropyl-piperidin-4-yloxy)pyridin-2-yl)-1,2,4-thiadiazol-5-ylamino)pyridin-3-yl)-N-methylacetamide], the IC50 lay in the range of 500 to 5000 nM.
Turning to `COc1cccnc1Nc1nc(-c2cc(C(F)(F)F)c(OC(C)C)cn2)ns1` [Compound 167, 3-(5-isopropoxy-4-(trifluoromethyl)pyridin-2-yl)-N-(3-methoxypyridin-2-yl)-1,2,4-thiadiazol-5-amine], the half-maximal inhibitory concentration (IC50) was in the range of 500 to 5000 nM.
`CN1CCC(Oc2ccnc(-c3nsc(Nc4ncccc4C(F)(F)F)n3)c2)CC1` [Compound 62, 3-(4-(1-methyl-piperidin-4-yloxy)pyridin-2-yl)-N-(3-(trifluoromethyl)pyridin-2-yl)-1,2,4-thiadiazol-5-amine]: the IC50 was 500 to 5000 nM.
With `CC(=O)N1CCc2cc(-c3nsc(Nc4ncccc4C(F)(F)F)n3)ncc21` [Compound 267, 1-(5-(5-(3-(trifluoromethyl)pyridin-2-ylamino)-1,2,4-thiadiazol-3-yl)-2,3-dihydro-1H-pyrrolo[2,3-c]pyridin-1-yl)ethanone], the IC50 is 200 to 500 nM.
For `CC(=O)N(C)c1cccnc1Nc1nc(-c2cc(C(C)C)ccn2)ns1` [Compound 216, N-(2-(3-(4-iso-propylpyridin-2-yl)-1,2,4-thiadiazol-5-ylamino)pyridin-3-yl)-N-methyl-acetamide], the IC50 was in the range of 200 to 500 nM.
Turning to `Cc1cccnc1Nc1nc(-c2ccc(OC(C)C)cn2)ns1` [Compound 19, 3-(5-isopropoxy-pyridin-2-yl)-N-(3-methyl-pyridin-2-yl)-1,2,4-thiadiazol-5-amine], the IC50 was under 200 nM.
`CC(=O)N(C)c1cc(C(F)(F)F)cnc1Nc1nc(-c2ccc(OC(C)C)cn2)ns1` [Compound 247, N-(2-(3-(5-isopropoxy-pyridin-2-yl)-1,2,4-thiadiazol-5-ylamino)-5-(trifluoro-methyl)pyridin-3-yl)-N-methylacetamide]: the IC50 was under 200 nM.
As to `Cc1ccnc(-c2noc(Nc3ncccc3F)n2)c1` [Compound 14, N-(3-fluoro-pyridin-2-yl)-3-(4-methylpyridin-2-yl)-1,2,4-oxadiazol-5-amine], the IC50 is 500 to 5000 nM.
Consider `CC(C)Oc1cnc(-c2nsc(Nc3ncccc3N(C)C)n2)cc1C(F)(F)F` [Compound 156, N2-(3-(5-isopropoxy-4-(trifluoromethyl)pyridin-2-yl)-1,2,4-thiadiazol-5-yl)-N3,N3-dimethyl-pyridine-2,3-diamine], for which the IC50 fell in the range of 200 to 500 nM.
As to `c1ccc(-c2nsc(Nc3ccc(OC4CCOCC4)cn3)n2)nc1` [Cmpd 9, 3-(pyridin-2-yl)-N-(5-(tetrahydro-2H-pyran-4-yloxy)pyridin-2-yl)-1,2,4-thiadiazol-5-amine], the 50% inhibitory concentration (IC50) was in the range of 500 to 5000 nM.
Regarding `CC(C)Oc1cnc(-c2nsc(Nc3ncccc3N(C)C(=O)C3CC3)n2)cc1C(F)(F)F` [Compound 186, N-(2-(3-(5-isopropoxy-4-(trifluoro-methyl)pyridin-2-yl)-1,2,4-thiadiazol-5-ylamino)pyridin-3-yl)-N-methylcyclo-propanecarbox-amide], the half-inhibitory concentration (IC50) was 200 to 500 nM.
Consider `Cc1cccnc1Nc1nc(-c2ccc(OC3CCOCC3)cn2)no1` [Compound 16, N-(3-methyl-pyridin-2-yl)-3-(5-(tetrahydro-2H-pyran-4-yloxy)pyridin-2-yl)-1,2,4-oxadiazol-5-amine], for which the IC50 lay within 500 to 5000 nM.
